Experimental data reported in US20240018153A1, “BENZENESULFONAMIDE DERIVATIVES AND USES THEREOF” (2692372 ONTARIO, INC., priority 2020, published 2024).

How the values were obtained:
BTK [1] = molecular target: T1, BTK (Homo sapiens (Human), UniProt Q06187); assay: Ramos RA1 cell lysis and immunoassay, phospho-BTK (Y223) inhibition; assay type: cell-based; set-up: key: X: BTK bound and autophosphoration of BTK inhibited in cells; details: RAMOS cells, compound concentration 1 μM
Method: Ramos RA 1 cells (ATCC) were cultured in RPMI-1640 media (Wisent) supplemented with 10% heat-inactivated FBS and 1% penicillin/streptomycin. Cells were seeded in 6-well plates at 1.71×10^6 cells/well and incubated at 37° C., 5% CO2 for 16 hours. Cells were treated with compound at the indicated concentrations or DMSO alone and incubated at 37° C., 5% CO2 for 24 hours. Cell suspensions were centrifugated at 1,400-1,600 RPM for 5 minutes at room temperature and supernatants were discarded. Cell pellets were resuspended with 1× RIPA buffer (Millipore) and incubated on ice for 15 minutes. Protein lysates were extracted by centrifugating at 20,000 RPM for 20 minutes at 4° C. Proteins were separated and total BTK protein levels were quantified by Simple Western Immunoassay (ProteinSimple) using the 12-230 kDa Jess Separation Module according to the manufacturer's protocol, using a protein concentration of 0.25 μg/μl and antibodies targeting BTK (clone #D3H5, Cell Signalling) and β-Actin (clone #AC-15, Santa Cruz) diluted to 1:400 and 1:10, respectively, where the latter was used as a loading control. An equal ratio of rabbit and mouse HRP-conjugated secondary antibodies was used for detection. BTK protein levels were quantified relative to S-Actin loading levels and subsequently normalized to the DMSO control. Phosphorylated BTK levels were quantified using the Protein Normalization Assay Module for Jess (ProteinSimple) according to the manufacturer's protocol, using a protein concentration of 1.5 μg/μl and an antibody targeting pBTK (Y223) (Cell Signalling) diluted to 1:50. Phosphorylated BTK levels were quantified relative to the Protein Normalization Reagent and subsequently normalized to the DMSO control.

BMX = BMX (Homo sapiens (Human), UniProt P51813); assay: HTRF KinEASE-TK kinase assay, BMX; assay type: biochemical; details: for remaining activity at 1 µM: 1 uM compound; for remaining activity at 1 µM / remaining activity at 10 µM: 3 h preincubation; for remaining activity at 10 µM: 10 uM compound
BMX, sequence (P51813 whole entry): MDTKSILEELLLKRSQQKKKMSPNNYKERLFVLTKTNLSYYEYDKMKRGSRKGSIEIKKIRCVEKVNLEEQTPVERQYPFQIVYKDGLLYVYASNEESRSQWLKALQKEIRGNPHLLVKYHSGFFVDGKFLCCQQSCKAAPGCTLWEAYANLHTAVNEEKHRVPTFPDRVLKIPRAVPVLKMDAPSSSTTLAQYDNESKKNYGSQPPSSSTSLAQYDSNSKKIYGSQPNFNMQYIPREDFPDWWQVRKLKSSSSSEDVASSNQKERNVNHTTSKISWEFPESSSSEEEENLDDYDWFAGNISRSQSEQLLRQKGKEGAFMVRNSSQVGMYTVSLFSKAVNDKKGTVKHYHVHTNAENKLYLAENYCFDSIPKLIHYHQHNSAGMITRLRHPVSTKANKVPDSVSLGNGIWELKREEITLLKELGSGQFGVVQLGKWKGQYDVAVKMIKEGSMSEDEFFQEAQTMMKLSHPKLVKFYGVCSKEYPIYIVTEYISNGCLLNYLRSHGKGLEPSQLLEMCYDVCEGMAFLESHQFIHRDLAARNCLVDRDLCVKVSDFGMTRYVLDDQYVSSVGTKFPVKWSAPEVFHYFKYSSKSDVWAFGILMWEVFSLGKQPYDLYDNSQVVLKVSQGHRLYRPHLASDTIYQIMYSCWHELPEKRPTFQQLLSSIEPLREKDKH
Method: (§1) Kinase activity was monitored using a HTRF® KinEASE-TK kit from Cisbio (62TK0PEC). […] BMX was purchased from Promega. 0.333 ng/ul BMX (3.03 nM) was preincubated in the absence or presence of inhibitor at room temperature for 3 hours. The reaction with substrate was then initiated by adding biotinylated substrate and ATP. […] Reaction was terminated by adding 31.25 nM SA-XL665 and 100 fold diluted europium labelled antibody (Eu-Ab), diluted in 1× detection buffer that contained EDTA. After 60 min of incubation, the fluorescence emission was measured at 620 nm and 665 nm. The ratio of Em 665 nm to Em 620 nm was proportional to the amount of substrate phosphorylated by the kinase.

JAK3 = JAK3 (Homo sapiens (Human), UniProt P52333); assay: HTRF KinEASE-TK kinase assay, JAK3; assay type: biochemical; details: for IC50: dose response; for remaining activity at 1 µM: read-out: % JAK3 Remaining activity vs DMSO (1 μM, 3 h); for remaining activity at 10 µM: read-out: % JAK3 Remaining activity vs DMSO (10 μM, 3 h)
JAK3, sequence (P52333 781-1124): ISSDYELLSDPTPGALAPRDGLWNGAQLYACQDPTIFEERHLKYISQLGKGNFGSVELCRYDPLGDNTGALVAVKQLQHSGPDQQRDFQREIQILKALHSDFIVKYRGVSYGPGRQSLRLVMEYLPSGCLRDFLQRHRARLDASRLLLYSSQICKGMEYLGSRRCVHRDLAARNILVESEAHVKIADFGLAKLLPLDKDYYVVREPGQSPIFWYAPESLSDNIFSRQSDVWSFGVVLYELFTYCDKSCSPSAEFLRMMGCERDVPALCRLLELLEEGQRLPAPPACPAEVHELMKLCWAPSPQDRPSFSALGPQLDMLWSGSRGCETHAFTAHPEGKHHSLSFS
Method: as §1, with “JAK-3” for “BMX”, “0.0133” for “0.333”, “JAK3 (0.21” for “BMX (3.03”, “Reaction” for “The reaction”, “The reaction” for “Reaction”

FGFR4 = FGFR4 (Homo sapiens (Human), UniProt P22455); assay: HTRF KinEASE-TK kinase assay, FGFR4; assay type: biochemical; details: for remaining activity at 1 µM: read-out: % FGFR4 Remaining activity vs DMSO (1 μM, 3 h); for remaining activity at 10 µM: read-out: % FGFR4 Remaining activity vs DMSO (10 μM, 3 h); for IC50: dose response
FGFR4, sequence (P22455 22-802): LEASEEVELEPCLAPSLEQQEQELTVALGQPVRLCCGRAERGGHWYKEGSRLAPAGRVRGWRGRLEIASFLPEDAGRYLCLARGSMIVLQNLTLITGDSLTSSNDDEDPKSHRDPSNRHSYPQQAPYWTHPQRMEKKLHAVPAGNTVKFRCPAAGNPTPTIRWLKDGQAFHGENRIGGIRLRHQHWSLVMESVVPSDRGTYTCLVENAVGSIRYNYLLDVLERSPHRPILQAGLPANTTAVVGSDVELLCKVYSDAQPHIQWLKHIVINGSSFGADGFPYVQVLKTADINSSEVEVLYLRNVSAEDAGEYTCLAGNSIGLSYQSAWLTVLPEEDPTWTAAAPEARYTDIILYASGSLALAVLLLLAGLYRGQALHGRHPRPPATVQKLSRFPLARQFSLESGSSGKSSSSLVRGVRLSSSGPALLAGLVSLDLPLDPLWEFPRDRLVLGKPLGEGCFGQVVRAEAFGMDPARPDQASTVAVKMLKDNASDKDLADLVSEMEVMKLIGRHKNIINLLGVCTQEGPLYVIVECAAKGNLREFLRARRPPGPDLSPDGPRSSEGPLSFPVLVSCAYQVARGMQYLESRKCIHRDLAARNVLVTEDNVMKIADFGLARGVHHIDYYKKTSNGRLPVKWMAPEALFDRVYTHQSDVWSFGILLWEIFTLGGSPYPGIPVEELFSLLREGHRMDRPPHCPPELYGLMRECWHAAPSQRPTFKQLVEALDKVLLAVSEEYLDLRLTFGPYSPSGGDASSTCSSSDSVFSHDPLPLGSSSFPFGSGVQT
Method: as §1, with “FGFR-4” for “BMX”, “FGFR4 (5.12” for “BMX (3.03”, “Reaction” for “The reaction”, “The reaction” for “Reaction”

BTK [2] = molecular target: T1, BTK; assay: HTRF KinEASE-TK kinase assay, BTK; assay type: biochemical; details: 3 h preincubation; for remaining activity at 1 µM: 1 μM compound, read-out: % BTK Remaining activity vs DMSO (1 μM, 3 h); for remaining activity at 10 µM: 10 μM compound, read-out: % BTK Remaining activity vs DMSO (10 μM, 3 h)
Method: Kinase activity was monitored using a HTRF® KinEASE-TK kit from Cisbio (62TK0PEC). For BTK, the 1× kinase buffer was supplemented with 10 mM MnCl2, 5 mM MgCl2, 1 uM ATPγS, 1 mM TCEP and 100 fold diluted Supplementary Enzyme Buffer. BTK was purchased from Promega. […] Reaction with substrate was then initiated by adding biotinylated substrate and ATP and the reaction was allowed to proceed for 45 min. […] After 60 min of incubation, the fluorescence emission was measured at 620 nm and 665 nm. The ratio of Em 665 nm to Em 620 nm was proportional to the amount of substrate phosphorylated by the kinase.

EGFR = EGFR (Homo sapiens (Human), UniProt P00533); assay: HTRF KinEASE-TK kinase assay, EGFR; assay type: biochemical; details: 3 h preincubation; for remaining activity at 1 µM: 1 μM compound, read-out: % EGFR Remaining activity vs DMSO (1 μM, 3 h); for remaining activity at 10 µM: 10 μM compound, read-out: % EGFR Remaining activity vs DMSO (10 μM, 3 h)
EGFR, sequence (P00533 25-1210): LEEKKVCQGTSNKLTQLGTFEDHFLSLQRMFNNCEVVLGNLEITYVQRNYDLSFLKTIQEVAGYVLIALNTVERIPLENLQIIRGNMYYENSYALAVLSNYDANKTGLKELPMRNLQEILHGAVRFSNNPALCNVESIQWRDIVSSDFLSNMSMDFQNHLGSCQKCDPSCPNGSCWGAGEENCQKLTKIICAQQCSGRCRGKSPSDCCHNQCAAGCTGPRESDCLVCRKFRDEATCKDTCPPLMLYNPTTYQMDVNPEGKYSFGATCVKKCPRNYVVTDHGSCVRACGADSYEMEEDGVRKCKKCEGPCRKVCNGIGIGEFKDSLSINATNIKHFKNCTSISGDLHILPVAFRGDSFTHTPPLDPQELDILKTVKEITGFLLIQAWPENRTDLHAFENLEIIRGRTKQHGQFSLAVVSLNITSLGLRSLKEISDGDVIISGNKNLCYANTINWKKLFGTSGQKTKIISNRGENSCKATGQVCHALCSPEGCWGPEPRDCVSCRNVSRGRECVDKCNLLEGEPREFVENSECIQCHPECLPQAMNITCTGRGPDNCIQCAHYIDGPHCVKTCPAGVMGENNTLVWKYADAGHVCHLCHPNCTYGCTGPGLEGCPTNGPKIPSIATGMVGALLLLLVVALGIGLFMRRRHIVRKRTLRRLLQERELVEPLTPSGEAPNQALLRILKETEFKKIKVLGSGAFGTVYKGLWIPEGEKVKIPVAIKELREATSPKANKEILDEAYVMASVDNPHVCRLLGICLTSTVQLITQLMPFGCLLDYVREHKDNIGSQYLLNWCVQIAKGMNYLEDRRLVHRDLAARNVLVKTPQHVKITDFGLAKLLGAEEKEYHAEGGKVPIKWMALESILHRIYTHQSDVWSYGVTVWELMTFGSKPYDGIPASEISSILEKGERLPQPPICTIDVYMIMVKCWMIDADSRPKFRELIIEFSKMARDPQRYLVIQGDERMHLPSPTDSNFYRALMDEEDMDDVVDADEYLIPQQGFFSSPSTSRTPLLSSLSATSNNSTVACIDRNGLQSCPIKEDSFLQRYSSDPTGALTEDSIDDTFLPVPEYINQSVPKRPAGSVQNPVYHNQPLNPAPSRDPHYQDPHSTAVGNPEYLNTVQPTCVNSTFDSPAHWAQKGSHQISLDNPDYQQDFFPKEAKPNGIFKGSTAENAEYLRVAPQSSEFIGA
Method: Kinase activity was monitored using a HTRF® KinEASE-TK kit from Cisbio (62TK0PEC). The buffer used was 1× kinase buffer supplemented with 2 mM MnCl2, 5 mM MgCl2, 1 mM TCEP and 100× diluted Supplementary Enzyme Buffer. EGFR was purchased from Promega. […] Reaction with substrate was then initiated by adding biotinylated substrate and ATP. […] After 60 min of incubation, the fluorescence emission was measured at 620 nm and 665 nm. The ratio of Em 665 nm to Em 620 nm was proportional to the amount of substrate phosphorylated by the kinase.
For initial screening, enzymes were pre incubated with compounds at 2 different concentrations (1 and 10 uM final) and 0.5% DMSO.

RIPK2 = RIPK2 (Homo sapiens (Human), UniProt O43353); assay: In vitro RIPK2 inhibition; assay type: biochemical; details: for remaining activity at 1 µM: read-out: % RIPK2 Remaining activity vs DMSO (1 μM, 3 h); for remaining activity at 10 µM: read-out: % RIPK2 Remaining activity vs DMSO (10 μM, 3 h)
RIPK2, sequence (O43353 whole entry, species assumed): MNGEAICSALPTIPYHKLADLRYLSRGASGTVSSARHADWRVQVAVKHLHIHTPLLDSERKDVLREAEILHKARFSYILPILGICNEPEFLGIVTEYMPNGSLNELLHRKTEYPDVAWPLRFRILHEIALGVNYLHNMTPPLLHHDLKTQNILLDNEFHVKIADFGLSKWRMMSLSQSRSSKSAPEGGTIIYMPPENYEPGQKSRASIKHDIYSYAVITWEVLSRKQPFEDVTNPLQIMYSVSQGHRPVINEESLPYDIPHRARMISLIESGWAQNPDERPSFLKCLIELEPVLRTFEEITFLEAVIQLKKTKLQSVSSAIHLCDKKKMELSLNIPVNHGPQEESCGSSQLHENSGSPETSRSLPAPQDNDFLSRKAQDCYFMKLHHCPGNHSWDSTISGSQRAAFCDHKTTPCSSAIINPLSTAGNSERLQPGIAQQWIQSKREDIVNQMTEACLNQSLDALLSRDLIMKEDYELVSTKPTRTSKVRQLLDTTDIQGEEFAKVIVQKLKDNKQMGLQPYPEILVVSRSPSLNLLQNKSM

T1 sequence (Q06187 whole entry): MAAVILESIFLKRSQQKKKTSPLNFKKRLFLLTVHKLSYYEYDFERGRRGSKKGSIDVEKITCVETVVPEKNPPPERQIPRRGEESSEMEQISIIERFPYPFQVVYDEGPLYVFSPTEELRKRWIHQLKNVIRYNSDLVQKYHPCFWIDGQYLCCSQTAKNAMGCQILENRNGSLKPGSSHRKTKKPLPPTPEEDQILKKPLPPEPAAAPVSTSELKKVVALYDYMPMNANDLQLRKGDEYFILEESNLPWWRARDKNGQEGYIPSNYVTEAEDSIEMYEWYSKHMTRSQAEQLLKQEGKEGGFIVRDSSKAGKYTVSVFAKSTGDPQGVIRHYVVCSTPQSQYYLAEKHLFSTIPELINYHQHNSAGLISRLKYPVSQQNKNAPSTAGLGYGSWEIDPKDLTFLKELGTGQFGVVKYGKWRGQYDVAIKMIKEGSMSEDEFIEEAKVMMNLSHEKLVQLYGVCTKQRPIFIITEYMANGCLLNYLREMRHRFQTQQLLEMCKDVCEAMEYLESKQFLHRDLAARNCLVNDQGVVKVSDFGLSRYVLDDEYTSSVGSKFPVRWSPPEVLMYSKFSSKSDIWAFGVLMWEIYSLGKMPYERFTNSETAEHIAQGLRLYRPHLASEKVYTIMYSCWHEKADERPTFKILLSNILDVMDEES

SMILES	pBTK inhibition (RAMOS, 24 h) (BTK [1])	remaining activity at 1 µM (BMX)	remaining activity at 10 µM (BMX)	IC50 (JAK3)	remaining activity at 1 µM (JAK3)	remaining activity at 10 µM (JAK3)	remaining activity at 1 µM (FGFR4)	remaining activity at 10 µM (FGFR4)	remaining activity at 1 µM (BTK [2])	remaining activity at 10 µM (BTK [2])	remaining activity at 1 µM (EGFR)	remaining activity at 10 µM (EGFR)	remaining activity at 1 µM (RIPK2)	remaining activity at 10 µM (RIPK2)	IC50 (FGFR4)	IC50 (EGFR; dose response, read-out: EGFR Inhibition IC50)	IC50 (BMX; dose response)
COCCOc1ccc(Nc2ncc(F)c(NCCCNS(=O)(=O)c3c(F)c(F)c(F)c(F)c3C(F)F)n2)cc1 [Compound I-52, 2-(difluoromethyl)-3,4,5,6-tetrafluoro-N-(3-((5-fluoro-2-((4-(2-methoxyethoxy)phenyl)amino)pyrimidin-4-yl)amino)propyl)benzenesulfonamide]	X	< 50%	< 50%	< 1000 nM	< 50%	< 50%	> 90%	< 50%	< 50%	< 50%	> 90%	50 to 90%					
CS(=O)(=O)c1c(F)c(F)c(F)c(F)c1C(=O)NCCNc1ncnc2[nH]ccc12 [Compound I-45, N-(2-((7H-pyrrolo[2,3-d]pyrimidin-4-yl)amino)ethyl)-2,3,4,5-tetrafluoro-6-(methylsulfonyl)benzamide]		< 50%	< 50%		< 50%	< 50%	> 90%	< 50%	< 50%	< 50%	> 90%	< 50%	< 50%	50 to 90%			
COc1c(F)c(F)c(F)c(F)c1S(=O)(=O)n1nc(-c2ccc(Oc3ccccc3)cc2)c2c(N)ncnc21 [Compound I-23, 3-(4-phenoxyphenyl)-1-((2,3,4,5-tetrafluoro-6-methoxyphenyl)sulfonyl)-1H-pyrazolo[3,4-d]pyrimidin-4-amine]	X	< 50%	< 50%		> 90%	50 to 90%	> 90%	> 90%	< 50%	< 50%							

Continued, values first:

pBTK inhibition (RAMOS, 24 h) (BTK [1])	remaining activity at 1 µM (BMX)	remaining activity at 10 µM (BMX)	IC50 (JAK3)	remaining activity at 1 µM (JAK3)	remaining activity at 10 µM (JAK3)	remaining activity at 1 µM (FGFR4)	remaining activity at 10 µM (FGFR4)	remaining activity at 1 µM (BTK [2])	remaining activity at 10 µM (BTK [2])	remaining activity at 1 µM (EGFR)	remaining activity at 10 µM (EGFR)	remaining activity at 1 µM (RIPK2)	remaining activity at 10 µM (RIPK2)	IC50 (FGFR4)	IC50 (EGFR; dose response, read-out: EGFR Inhibition IC50)	IC50 (BMX; dose response)	SMILES
	< 50%	< 50%		< 50%	< 50%	50 to 90%	> 90%	< 50%	< 50%	< 50%	< 50%	50 to 90%	50 to 90%				CN(C)S(=O)(=O)c1c(F)c(F)c(F)c(F)c1C(=O)N1CC(n2nc(-c3ccc(Oc4ccccc4)cc3)c3c(N)ncnc32)C1 [Compound I-29, 2-(3-(4-amino-3-(4-phenoxyphenyl)-1H-pyrazolo[3,4-d]pyrimidin-1-yl)azetidine-1-carbonyl)-3,4,5,6-tetrafluoro-N,N-dimethylbenzenesulfonamide]
	50 to 90%	< 50%		> 90%	50 to 90%	< 50%	< 50%	< 50%	< 50%	> 90%	50 to 90%	50 to 90%	> 90%	< 1000 nM			CN(CCn1nc(-c2ccc(Oc3ccccc3)cc2)c2c(N)ncnc21)C(=O)c1c(F)c(F)c(F)c(F)c1S(=O)(=O)N(C)C [Compound I-30, N-(2-(4-amino-3-(4-phenoxyphenyl)-1H-pyrazolo[3,4-d]pyrimidin-1-yl)ethyl)-2-(N,N-dimethylsulfamoyl)-3,4,5,6-tetrafluoro-N-methylbenzamide]
	< 50%	< 50%	< 1000 nM	< 50%	< 50%	50 to 90%	< 50%	< 50%	< 50%	< 50%	< 50%	50 to 90%	> 90%		< 1000 nM		CS(=O)(=O)c1c(F)c(F)c(F)c(F)c1C(=O)N1CC(n2nc(-c3ccc(Oc4ccccc4)cc3)c3c(N)ncnc32)C1 [Compound I-27, (3-(4-amino-3-(4-phenoxyphenyl)-1H-pyrazolo[3,4-d]pyrimidin-1-yl)azetidin-1-yl)(2,3,4,5-tetrafluoro-6-(methylsulfonyl)phenyl)methanone]
	< 50%	< 50%		> 90%	< 50%	< 50%	< 50%	< 50%	< 50%	< 50%	< 50%	50 to 90%	> 90%	< 1000 nM		< 1000 nM	CN(CCn1nc(-c2ccc(Oc3ccccc3)cc2)c2c(N)ncnc21)C(=O)c1c(F)c(F)c(F)c(F)c1S(C)(=O)=O [Compound I-28, N-(2-(4-amino-3-(4-phenoxyphenyl)-1H-pyrazolo[3,4-d]pyrimidin-1-yl)ethyl)-2,3,4,5-tetrafluoro-N-methyl-6-(methylsulfonyl)benzamide]
